# From ChEMBL document CHEMBL1135903 (J Med Chem, 2002)
# Key:
# [1] = biological target: T1, Carbonic anhydrase 4 (Bos taurus, UniProt Q95323)
# T1 sequence (Q95323 whole entry): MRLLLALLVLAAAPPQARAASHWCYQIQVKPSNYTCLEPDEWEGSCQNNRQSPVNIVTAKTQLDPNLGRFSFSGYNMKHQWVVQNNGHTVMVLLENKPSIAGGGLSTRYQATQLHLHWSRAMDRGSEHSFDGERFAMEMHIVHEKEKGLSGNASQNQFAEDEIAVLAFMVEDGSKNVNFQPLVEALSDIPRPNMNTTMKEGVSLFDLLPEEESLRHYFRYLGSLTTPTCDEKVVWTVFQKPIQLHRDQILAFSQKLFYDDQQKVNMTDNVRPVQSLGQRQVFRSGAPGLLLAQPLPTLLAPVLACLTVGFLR
# Description: Inhibitory activity against bovine carbonic anhydrase IV
# [2] = biological target: Carbonic anhydrase 1 (Homo sapiens, UniProt P00915)
# Chain of Carbonic anhydrase 1 (P00915 whole entry): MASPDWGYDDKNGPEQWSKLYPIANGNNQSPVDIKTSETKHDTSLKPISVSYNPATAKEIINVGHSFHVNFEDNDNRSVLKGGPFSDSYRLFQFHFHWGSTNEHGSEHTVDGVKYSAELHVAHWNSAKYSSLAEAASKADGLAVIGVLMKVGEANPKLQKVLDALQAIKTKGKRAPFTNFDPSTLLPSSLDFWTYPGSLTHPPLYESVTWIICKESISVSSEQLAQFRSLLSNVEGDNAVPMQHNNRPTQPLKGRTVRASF
# Description: Inhibitory activity against Human carbonic anhydrase I
SMILES,Ki [1] [nM],Ki [2] [nM]
NS(=O)(=O)c1ccc(COC(=O)CN(CCN(CC(=O)O)CC(=O)O)CC(=O)O)cc1,335,850
NS(=O)(=O)c1ccccc1NC(=O)CNCC(=O)O,1240,27000
NS(=O)(=O)c1ccccc1NC(=O)CNCCNCC(=O)O,1020,20500
NS(=O)(=O)c1nnc(NC(=O)CCNC(=O)CNCCNCC(=O)O)s1,39,240
NS(=O)(=O)c1cccc(NC(=O)CN(CCOCCOCCN(CC(=O)O)CC(=O)Nc2cccc(S(N)(=O)=O)c2)CC(=O)O)c1,400,6150
NS(=O)(=O)c1ccccc1NC(=O)CN(CCOCCOCCN(CC(=O)O)CC(=O)O)CC(=O)O,545,8900
NS(=O)(=O)c1cc(S(N)(=O)=O)c(NC(=O)CN(CCN(CC(=O)O)CC(=O)O)CC(=O)O)c(Cl)c1Cl,96,130
NS(=O)(=O)c1ccc(NNC(=O)CN(CCOCCOCCN(CC(=O)O)CC(=O)O)CC(=O)O)cc1,620,12500
NS(=O)(=O)c1ccc(NNC(=O)CN(CC(=O)O)CC(=O)O)cc1,930,30500
NS(=O)(=O)c1ccc(CNC(=O)CN(CCN(CC(=O)O)c2ccccc2O)c2ccccc2O)cc1,135,1200
NS(=O)(=O)c1ccc(CCOC(=O)CN(CCOCCOCCN(CC(=O)O)CC(=O)O)CC(=O)O)cc1,155,430
NS(=O)(=O)c1cc(S(N)(=O)=O)c(NC(=O)CN(CC(=O)O)CC(=O)O)c(Cl)c1Cl,100,345
NS(=O)(=O)c1ccc(NNC(=O)CNCCNCC(=O)O)cc1,950,21800
NS(=O)(=O)c1cccc(NC(=O)CNCCNCC(=O)O)c1,1010,13000
NS(=O)(=O)c1nc2ccc(NC(=O)CN(CC(=O)O)CC(=O)O)cc2s1,13,62
NS(=O)(=O)c1nnc(NC(=O)CN(CCOCCOCCN(CC(=O)O)CC(=O)Nc2nnc(S(N)(=O)=O)s2)CC(=O)O)s1 [listing 1 of 2 here],8,27
NS(=O)(=O)c1ccc(COC(=O)CN(CCOCCOCCN(CC(=O)O)CC(=O)OCc2ccc(S(N)(=O)=O)cc2)CC(=O)O)cc1,150,335
NS(=O)(=O)c1nnc(NC(=O)CCNC(=O)CN(CCOCCOCCN(CC(=O)O)CC(=O)O)CC(=O)O)s1,13,120
NS(=O)(=O)c1cc(S(N)(=O)=O)c(NC(=O)CN(CCOCCOCCN(CC(=O)O)CC(=O)O)CC(=O)O)cc1Cl,65,93
NS(=O)(=O)c1nc2ccc(OCCOC(=O)CN(CCN(CC(=O)O)c3ccccc3O)c3ccccc3O)cc2s1,7,41
NS(=O)(=O)c1nnc(NC(=O)CN(CCOCCOCCN(CC(=O)O)CC(=O)Nc2nnc(S(N)(=O)=O)s2)CC(=O)O)s1 [listing 2 of 2 here],4,55
NS(=O)(=O)c1ccc(NC(=O)CNCCNCC(=O)O)c(Br)c1,54,380
NS(=O)(=O)c1cc(S(N)(=O)=O)c(NC(=O)CNCCNCC(=O)O)c(Cl)c1Cl,110,290
NS(=O)(=O)c1ccc(NC(=O)CN(CCN(CC(=O)O)c2ccccc2O)c2ccccc2O)c(I)c1,90,220

SMILES,Ki [1] [nM],Ki [2] [nM]
NS(=O)(=O)c1ccc(NC(=O)CN(CCN(CC(=O)O)CC(=O)Nc2ccc(S(N)(=O)=O)cc2Cl)CC(=O)O)c(Cl)c1,50,225
NS(=O)(=O)c1ccc(NC(=O)CNCC(=O)O)c(Br)c1,57,610
NS(=O)(=O)c1nc2ccc(OC(=O)CN(CC(=O)O)CC(=O)O)cc2s1,13,48
NS(=O)(=O)c1ccc(NC(=O)CN(CCN(CC(=O)O)CC(=O)Nc2ccc(S(N)(=O)=O)cc2I)CC(=O)O)c(I)c1,45,89
NS(=O)(=O)c1nc2ccc(OCCOC(=O)CN(CCOCCOCCN(CC(=O)O)CC(=O)O)CC(=O)O)cc2s1,6,30
NS(=O)(=O)c1nnc(NC(=O)CN(CCN(CC(=O)O)CC(=O)O)CC(=O)O)s1,37,225
NS(=O)(=O)c1ccc(NC(=O)CN(CCN(CC(=O)O)CC(=O)O)CC(=O)O)c(Cl)c1,69,700
NS(=O)(=O)c1ccc(NC(=O)CNCCNCC(=O)O)c(I)c1,115,430
NS(=O)(=O)c1ccc(CCNC(=O)CNCCNCC(=O)O)cc1,250,1540
NS(=O)(=O)c1ccc(NC(=O)CNCC(=O)O)c(Cl)c1,165,975
NS(=O)(=O)c1nc2ccc(NC(=O)CNCC(=O)O)cc2s1,14,65
NS(=O)(=O)c1cccc(NC(=O)CNCC(=O)O)c1,1500,23000
NS(=O)(=O)c1ccc(NC(=O)CNCC(=O)O)c(I)c1,114,515
NS(=O)(=O)c1ccc(NC(=O)CNCCNCC(=O)O)cc1,365,12000
NS(=O)(=O)c1nc2ccc(OC(=O)CN(CCOCCOCCN(CC(=O)O)CC(=O)O)CC(=O)O)cc2s1,5,33
NS(=O)(=O)c1ccc(CCNC(=O)CN(CCN(CC(=O)O)CC(=O)O)CC(=O)O)cc1,75,650
Cn1nc(S(N)(=O)=O)s/c1=N/C(=O)CN(CCOCCOCCN(CC(=O)O)CC(=O)O)CC(=O)O,16,66
NS(=O)(=O)c1ccccc1NC(=O)CN(CC(=O)O)CC(=O)O,1200,25800
NS(=O)(=O)c1nc2ccc(OCCOC(=O)CN(CCOCCOCCN(CC(=O)O)CC(=O)OCCOc3ccc4nc(S(N)(=O)=O)sc4c3)CC(=O)O)cc2s1,5,15
NS(=O)(=O)c1ccc(CCNC(=O)CN(CCN(CC(=O)O)c2ccccc2O)c2ccccc2O)cc1,215,1050
NS(=O)(=O)c1ccccc1NC(=O)CN(CCN(CC(=O)O)CC(=O)Nc1ccccc1S(N)(=O)=O)CC(=O)O,650,8100
NS(=O)(=O)c1nc2ccc(OC(=O)CN(CCN(CC(=O)O)CC(=O)Oc3ccc4nc(S(N)(=O)=O)sc4c3)CC(=O)O)cc2s1,8,37
NS(=O)(=O)c1ccc(NC(=O)CNCCNCC(=O)O)c(Cl)c1,155,900
NS(=O)(=O)c1cccc(NC(=O)CN(CC(=O)O)CC(=O)O)c1,1520,23000

SMILES,Ki [1] [nM],Ki [2] [nM]
NS(=O)(=O)c1ccc(CNC(=O)CNCC(=O)O)cc1,279,3600
NS(=O)(=O)c1ccc(CNC(=O)CN(CCOCCOCCN(CC(=O)O)CC(=O)O)CC(=O)O)cc1,48,610
NS(=O)(=O)c1nc2ccc(OCCOC(=O)CNCCNCC(=O)O)cc2s1,9,43
NS(=O)(=O)c1ccc(NC(=O)CN(CCOCCOCCN(CC(=O)O)CC(=O)O)CC(=O)O)cc1,170,4000
NS(=O)(=O)c1cc(S(N)(=O)=O)c(NC(=O)CN(CCOCCOCCN(CC(=O)O)CC(=O)O)CC(=O)O)c(Cl)c1Cl,35,50
NS(=O)(=O)c1ccc(CCOC(=O)CN(CCOCCOCCN(CC(=O)O)CC(=O)OCCc2ccc(S(N)(=O)=O)cc2)CC(=O)O)cc1,96,300
NS(=O)(=O)c1nc2ccc(OC(=O)CN(CCN(CC(=O)O)c3ccccc3O)c3ccccc3O)cc2s1,12,47
NS(=O)(=O)c1ccc(COC(=O)CNCCNCC(=O)O)cc1,350,1020
NS(=O)(=O)c1nc2ccc(OCCOC(=O)CN(CCN(CC(=O)O)CC(=O)O)CC(=O)O)cc2s1,8,39
NS(=O)(=O)c1ccc(NC(=O)CN(CCN(CC(=O)O)CC(=O)O)CC(=O)O)c(Br)c1,50,130
NS(=O)(=O)c1ccc(NC(=O)CNCC(=O)O)cc1,450,21300
NS(=O)(=O)c1ccc(CNC(=O)CN(CCN(CC(=O)O)CC(=O)O)CC(=O)O)cc1,83,900
NS(=O)(=O)c1nc2ccc(OC(=O)CN(CCN(CC(=O)O)CC(=O)O)CC(=O)O)cc2s1,10,43
NS(=O)(=O)c1cccc(NC(=O)CN(CCOCCOCCN(CC(=O)O)CC(=O)O)CC(=O)O)c1,500,7450
NS(=O)(=O)c1nnc(NC(=O)CN(CC(=O)O)CC(=O)O)s1,240,410
NS(=O)(=O)c1nc2ccc(NC(=O)CN(CCN(CC(=O)O)CC(=O)Nc3ccc4nc(S(N)(=O)=O)sc4c3)CC(=O)O)cc2s1,9,33
NS(=O)(=O)c1ccc(NC(=O)CNCCNCC(=O)O)c(F)c1,103,780
NS(=O)(=O)c1ccc(NC(=O)CN(CC(=O)O)CC(=O)O)c(F)c1,136,1000
NS(=O)(=O)c1ccc(NC(=O)CN(CCOCCOCCN(CC(=O)O)CC(=O)O)CC(=O)O)c(I)c1,24,76
NS(=O)(=O)c1nnc(NC(=O)CCNC(=O)CN(CCOCCOCCN(CC(=O)O)CC(=O)NCCC(=O)Nc2nnc(S(N)(=O)=O)s2)CC(=O)O)s1,6,76
NS(=O)(=O)c1ccc(NC(=O)CN(CC(=O)O)CC(=O)O)c(Cl)c1,150,960
NS(=O)(=O)c1ccc(COC(=O)CNCC(=O)O)cc1,350,1260
NS(=O)(=O)c1ccc(CCNC(=O)CNCC(=O)O)cc1,257,3450
NS(=O)(=O)c1cc(S(N)(=O)=O)c(NC(=O)CN(CCN(CC(=O)O)c2ccccc2O)c2ccccc2O)cc1Cl,123,240
